This is an account of results in patent US9975874B2, “Factor XIa inhibitors” (Merck Sharp & Dohme Corp., priority 2014, dated 2018).

The target of experiment [1] is purified human Factor XIa (Homo sapiens (Human), UniProt P03951). The experiment can be described thus: Factor XIa Assay. The class given is biochemical. Conditions: substrate Z-Gly-Pro-Arg-AFC 100 μM, 40 pM enzyme, pH 7.4; read-out: FXIa IC50. As to the method:
The effectiveness of a compound of the present invention as an inhibitor of Coagulation Factor XIa can be determined using a relevant purified serine protease, and an appropriate synthetic substrate. The rate of hydrolysis of the chromogenic or fluorogenic substrate by the relevant serine protease was measured both in the absence and presence of compounds of the present invention. Assays were conducted at room temperature or at 37° C. […] A decrease in the rate of fluorescence change in the presence of inhibitor is indicative of enzyme inhibition. Such methods are known to one skilled in the art. […]
Factor XIa determinations were made in 50 mM HEPES buffer at pH 7.4 containing 150 mM NaCl, 5 mM CaCl2, and 0.1% PEG 8000 (polyethylene glycol; JT Baker or Fisher Scientific). Determinations were made using purified human Factor XIa at a final concentration of 40 pM (Sekisui Diagnostics) and the synthetic substrate, Z-Gly-Pro-Arg-AFC, TFA salt (Sigma #C0980) at a concentration of 100 μM.
Times required to achieve equilibration between enzyme and inhibitor were determined in control experiments. Initial velocities of product formation in the absence (Vo) or presence of inhibitor (Vi) were measured. Assuming competitive inhibition, and that unity is negligible compared Km/[S], [I]/e, and [I]/e (where [S], [I], and e respectively represent the total concentrations, of substrate, inhibitor and enzyme), the equilibrium constant (Ki) for dissociation of the inhibitor from the enzyme can be obtained from the dependence of Vo/Vi on [I] shown in the following equation.

For experiment [2], the target named is purified Human plasma kallikrein (Homo sapiens (Human), UniProt P03952). The experiment can be described thus: Kallikrein Assay. The experiment is classed as biochemical. Conditions: Plasma kallikrein; substrate Acetyl-K-P-R-AFC, 0.5 nM enzyme, pH 7.4; read-out: PK IC50. As to the method: The effectiveness of a compound of the present invention as an inhibitor of Kallikrein can be determined using a relevant purified serine protease, and an appropriate synthetic substrate. The rate of hydrolysis of the chromogenic or fluorogenic substrate by the relevant serine protease was measured both in the absence and presence of compounds of the present invention. Assays were conducted at room temperature or at 37° C. […] A decrease in the rate of fluorescence change in the presence of inhibitor is indicative of enzyme inhibition. Such methods are known to one skilled in the art. The results of this assay are expressed as the inhibitory constant, Ki.
Kallikrein determinations were made in 50 mM HEPES buffer at pH 7.4 containing 150 mM NaCl, 5 mM CaCl2, and 0.1% PEG 8000 (polyethylene glycol; Fisher Scientific). Determinations were made using purified Human plasma kallikrein at a final concentration of 0.5 nM (Enzyme Research Laboratories) and the synthetic substrate, Acetyl-K-P-R-AFC (Sigma # C6608) at a concentration of […].
Times required to achieve equilibration between enzyme and inhibitor were determined in control experiments. The reactions were performed under linear progress curve conditions and fluorescence increase measured at 405 Ex/510 Em nm. […] IC50 was determined by inflection point from a four parameter logistic curve fit. Ki was calculated using the Cheng Prusoff equation, Ki=IC50/(1+([S]/Km)).

Chain of purified human Factor XIa (P03951 388-625): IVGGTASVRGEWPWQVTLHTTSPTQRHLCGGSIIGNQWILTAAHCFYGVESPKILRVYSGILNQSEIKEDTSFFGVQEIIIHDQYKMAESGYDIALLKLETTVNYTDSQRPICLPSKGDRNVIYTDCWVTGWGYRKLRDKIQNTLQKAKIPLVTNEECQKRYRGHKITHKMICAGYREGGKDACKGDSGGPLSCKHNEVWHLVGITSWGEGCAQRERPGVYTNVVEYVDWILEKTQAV
Chain of purified human Factor XIa (P03951 19-387 partner): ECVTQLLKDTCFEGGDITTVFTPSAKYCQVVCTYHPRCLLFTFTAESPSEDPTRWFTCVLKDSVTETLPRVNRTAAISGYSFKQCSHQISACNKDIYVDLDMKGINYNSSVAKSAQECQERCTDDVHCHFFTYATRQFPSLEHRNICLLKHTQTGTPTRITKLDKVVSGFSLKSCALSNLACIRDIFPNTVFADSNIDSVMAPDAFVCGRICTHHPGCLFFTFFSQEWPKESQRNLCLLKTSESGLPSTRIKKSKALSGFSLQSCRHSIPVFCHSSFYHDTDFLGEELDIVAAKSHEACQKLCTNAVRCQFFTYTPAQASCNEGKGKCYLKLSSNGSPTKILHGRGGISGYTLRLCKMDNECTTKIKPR
Chain of purified Human plasma kallikrein (P03952 391-638): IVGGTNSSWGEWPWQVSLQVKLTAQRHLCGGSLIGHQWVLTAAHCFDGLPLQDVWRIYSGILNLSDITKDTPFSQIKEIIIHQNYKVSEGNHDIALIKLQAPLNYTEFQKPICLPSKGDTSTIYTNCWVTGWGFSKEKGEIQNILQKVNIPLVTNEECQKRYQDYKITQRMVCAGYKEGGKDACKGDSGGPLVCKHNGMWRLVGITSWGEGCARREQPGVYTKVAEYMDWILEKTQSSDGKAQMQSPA
Chain of purified Human plasma kallikrein (P03952 20-390 partner): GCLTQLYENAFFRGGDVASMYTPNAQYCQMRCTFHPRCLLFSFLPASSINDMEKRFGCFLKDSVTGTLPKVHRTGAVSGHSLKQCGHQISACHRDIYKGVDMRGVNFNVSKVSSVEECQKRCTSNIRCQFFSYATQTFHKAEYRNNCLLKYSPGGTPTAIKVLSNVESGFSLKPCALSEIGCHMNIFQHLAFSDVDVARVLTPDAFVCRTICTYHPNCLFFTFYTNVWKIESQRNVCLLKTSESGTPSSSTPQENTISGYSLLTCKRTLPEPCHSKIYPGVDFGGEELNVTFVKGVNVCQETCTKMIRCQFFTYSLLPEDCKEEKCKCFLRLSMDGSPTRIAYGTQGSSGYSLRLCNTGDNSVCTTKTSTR

A word on the IC50: it is the concentration at which inhibition is half-maximal. Turning to `COCCNC(=O)N1CCC(c2cccc([C@H](Cc3ccccc3)c3ccc(-c4cc(Cl)ccc4-n4cnnn4)c[n+]3[O-])c2)CC1` [Example 48, 4-{3-[(1s)-1-{5-[5-chloro-2-(1H-tetrazol-1-yl)phenyl]-1-oxidopyridin-2-yl}-2-phenylethyl]phenyl}-N-(2-methoxyethyl) piperidine-1-carboxamide], the IC50 in experiment [1] was determined as 8.71 nM; in experiment [2] it was 325 nM.

On to `O=C(NC1CCOC1)N1CCC(c2cccc([C@H](Cc3ccccc3)c3ccc(-c4cc(Cl)ccc4-n4cnnn4)c[n+]3[O-])c2)CC1` (stereo partly drawn) [Example 49, 4-{3-[(1S)-1-{5-[5-chloro-2-(1H-tetrazol-1-yl)phenyl]-1-oxidopyridin-2-yl}-2-phenylethyl]phenyl}-N-(tetrahydrofuran-3-yl)piperidine-1-carboxamide], for which the half-inhibitory concentration (IC50) turned out to be 6.89 nM in experiment [1] and 414 nM in experiment [2].

With `O=C(NC1CCC1)N1CCC(c2cccc([C@H](Cc3ccccc3)c3ccc(-c4cc(Cl)ccc4-n4cnnn4)c[n+]3[O-])c2)CC1` [Example 51, 4-{3-[(1S)-1-{5-[5-chloro-2-(1H-tetrazol-1-yl)phenyl]-1-oxidopyridin-2-yl}-2-phenylethyl]phenyl}-N-cyclobutyl piperidine-1-carboxamide], the figures for the IC50 in experiment [1] and in experiment [2] were 13.2 nM and 614 nM, respectively.

`O=C(NCC1CCOC1)N1CCC(c2cccc([C@H](Cc3ccccc3)c3ccc(-c4cc(Cl)ccc4-n4cnnn4)c[n+]3[O-])c2)CC1` (stereo partly drawn) [Example 52, 4-{3-[(1S)-1-{5-[5-chloro-2-(1H-tetrazol-1-yl)phenyl]-1-oxidopyridin-2-yl}-2-phenylethyl]phenyl}-N-(tetrahydrofuran-3-ylmethyl) piperidine-1-carboxamide]: the IC50 is 6.48 nM in experiment [1] and 384 nM in experiment [2].
